The results in this text go back to ChEMBL document CHEMBL1154119, “Rational design, synthesis and characterization of potent, non-peptidic Smac mimics/XIAP inhibitors as proapoptotic agents for cancer therapy” (Bioorg Med Chem, 2009).

Structures are written as SMILES. pIC50: −log10 of the molar value. Where only a bound is given, the exact number is not on record here.

The test system of one series is MDA-MB-231. Put plainly: cells. Conditions: Homo sapiens, MDA-MB-231, 96 h.
Series [1] is described as follows: Metabolic stability of compound in phosphate buffer in presence of human CYP3A4 and NADPH. Format: ADME.
Another series has as its system PC-3. Put plainly: Cytotoxicity against human PC3 cells after 96 hrs by MTT assay. Conditions: PC-3, 96 h. (In general: Formazan colour is commonly taken as a measure of viable cells.)
The next series has as its system HL-60. As to the kind of experiment: Cytotoxicity against human HL60 cells after 96 hrs by MTT assay. To be noted: HL-60, 96 h.
Series [2] has as its target T1, E3 ubiquitin-protein ligase XIAP (Homo sapiens, UniProt P98170).
Description: Binding affinity to human recombinant XIAP linker BIR2-BIR3 expressed in Escherichia coli BL21 by fluorescence polarization assay
Series [3] in a line: Solubility at pH 7.4. Format: physicochemical. Conditions: buffer.
Series [4] can be described thus: Solubility at pH 3. It is filed as physicochemical. To be noted: buffer.
In series [5] the target is T1, E3 ubiquitin-protein ligase XIAP. The source holds these as a separate data set.
Description: Binding affinity to human recombinant XIAP BIR3 domain expressed in Escherichia coli BL21 by fluorescence polarization assay

T1 sequence (P98170 whole entry): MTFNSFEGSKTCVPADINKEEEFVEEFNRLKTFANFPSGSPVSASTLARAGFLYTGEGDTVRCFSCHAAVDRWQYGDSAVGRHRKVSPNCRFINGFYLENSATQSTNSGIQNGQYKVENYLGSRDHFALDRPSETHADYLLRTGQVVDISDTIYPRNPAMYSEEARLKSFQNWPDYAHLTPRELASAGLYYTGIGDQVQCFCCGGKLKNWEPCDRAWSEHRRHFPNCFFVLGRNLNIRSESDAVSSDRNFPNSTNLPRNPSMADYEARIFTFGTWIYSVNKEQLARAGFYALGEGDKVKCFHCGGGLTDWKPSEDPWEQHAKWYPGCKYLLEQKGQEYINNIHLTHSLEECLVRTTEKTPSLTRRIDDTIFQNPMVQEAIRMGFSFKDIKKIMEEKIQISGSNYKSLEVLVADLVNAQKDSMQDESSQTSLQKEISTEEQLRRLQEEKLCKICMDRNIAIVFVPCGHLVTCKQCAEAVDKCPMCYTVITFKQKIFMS
Description for MDA-MB-231: Cytotoxicity against human MDA-MB-231 cells after 96 hrs by MTT assay

The term pIC50 denotes −log10 of the IC50, conventionally taken in molar units. A lower pIC50 goes with a high IC50. Regarding `CC[C@H](NC)C(=O)N[C@H]1CCC[C@H]2CC[C@@H](C(=O)NC(c3ccccc3)c3ccccc3)N2C1=O`, the pIC50 in the series with MDA-MB-231 is 6.84; with PC-3 it was 4.24; in the series on HL-60, 4.69. Also, the Stability in series [1] worked out at 83%.

As to `CC[C@H](N)C(=O)N[C@H]1CCC[C@H]2CC[C@@H](C(=O)NC(c3ccccc3)c3ccccc3)N2C1=O`, the figures for the pIC50 with MDA-MB-231, in the series on PC-3 and in the series with HL-60 were under 4.00, under 4.00 and 4.61, respectively. In series [1], the Stability came out at 87%.

As for `CC[C@H](NC)C(=O)N[C@@H]1C(=O)N2[C@@H](CC[C@@H]1CO)CC[C@H]2C(=O)NC(c1ccccc1)c1ccccc1`, the pIC50 with MDA-MB-231 is […]; in the series on PC-3, under 4.00; in the series with HL-60, 4.58. Also, the Stability in series [1] is reported as 86%.

For `CC[C@H](NC)C(=O)N[C@@H]1C(=O)N2[C@@H](CC[C@@H]1CN)CC[C@H]2C(=O)NC(c1ccccc1)c1ccccc1`, the pIC50 was 6.27 with MDA-MB-231, 4.29 with PC-3 and 4.29 in the series with HL-60. Moreover, the Stability in series [1] is on record as 78%.

Regarding `CC[C@H](N)C(=O)N[C@@H]1C(=O)N2[C@@H](CC[C@@H]1CO)CC[C@H]2C(=O)NC(c1ccccc1)c1ccccc1`, the pIC50 in the series on MDA-MB-231 is 5.99; in the series with PC-3, under 4.00; with HL-60 it was 5.19. The Stability in series [1] is 79%.

As to `CCNCC[C@H]1CC[C@H]2CC[C@@H](C(=O)NC(c3ccccc3)c3ccccc3)N2C(=O)[C@H]1NC(=O)[C@H](CC)NC`, the results for the pIC50 in the series with MDA-MB-231, in the series on PC-3 and in the series on HL-60 were 5.89, under 4.00 and 4.12, respectively. Further, in series [1], the Stability is reported as 90%.

As for `CC[C@H](N)C(=O)N[C@@H]1C(=O)N2[C@@H](CC[C@@H]1CCN)CC[C@H]2C(=O)NC(c1ccccc1)c1ccccc1`, the pIC50 in series [2] is 7.07; in the series with MDA-MB-231 it was 4.89; with PC-3, 4.07; with HL-60, 4.60. Further, the Stability in series [1] stood at 75%.

Take `CC[C@H](NC)C(=O)N[C@@H]1C(=O)N2[C@@H](CC[C@@H]1CCN)CC[C@H]2C(=O)NC(c1ccccc1)c1ccccc1`: the pIC50 with MDA-MB-231 is 5.64; in the series with PC-3 it was under 4.00; in the series on HL-60, 4.51. Moreover, in series [1], the Stability came to 86%.

Regarding `CC[C@H](N)C(=O)N[C@@H]1C(=O)N2[C@@H](CC[C@@H]1CCNC(=O)c1ccccc1)CC[C@H]2C(=O)NC(c1ccccc1)c1ccccc1`, the pIC50 in the series with MDA-MB-231 is 6.03; in the series with PC-3 it was under 4.00; with HL-60, 4.29. The Stability in series [1] is recorded as 65%.

Consider `CC[C@H](NC)C(=O)N[C@@H]1C(=O)N2[C@@H](CC[C@@H]1CCNC(=O)c1ccccc1)CC[C@H]2C(=O)NC(c1ccccc1)c1ccccc1`, for which the pIC50 was 6.68 in the series on MDA-MB-231, under 4.00 in the series with PC-3 and 4.49 in the series with HL-60. In addition, the Stability in series [1] is 43%.

For the compound `CC[C@H](N)C(=O)N[C@@H]1C(=O)N2[C@@H](CC[C@@H]1CCNC(=O)NCc1ccccc1)CC[C@H]2C(=O)NC(c1ccccc1)c1ccccc1`, the pIC50 is 4.97 in the series with MDA-MB-231, under 4.00 in the series with PC-3 and 4.08 in the series with HL-60. The Stability in series [1] is on record as 65%.

For `CC[C@H](NC)C(=O)N[C@@H]1C(=O)N2[C@@H](CC[C@@H]1CCNCc1ccccc1)CC[C@H]2C(=O)NC(c1ccccc1)c1ccccc1`, the solubility result in series [3] and in series [4] was “Soluble” throughout. The pIC50 was 7.57 in series [2]; 6.85 in the series on MDA-MB-231; 5.11 in the series with PC-3; 5.28 with HL-60; 6.96 in series [5]. Besides, the Stability in series [1] came out at 81%.

`CC[C@H](NC)C(=O)N[C@@H]1C(=O)N2[C@@H](CC[C@@H]1CCNC(=O)NCc1ccccc1)CC[C@H]2C(=O)NC(c1ccccc1)c1ccccc1`: the figures for the pIC50 in the series on MDA-MB-231, in the series on PC-3 and in the series with HL-60 were 5.92, 4.08 and 4.28, respectively. Besides, in series [1], the Stability is listed as 51%.

As for `CC[C@H](N)C(=O)N[C@@H]1C(=O)N2[C@@H](CC[C@@H]1CCNCc1ccccc1)CC[C@H]2C(=O)NC(c1ccccc1)c1ccccc1`, the pIC50 with MDA-MB-231 is 6.40; in the series with PC-3, 4.41; with HL-60 it was 4.81.

For `CC[C@H](N)C(=O)N[C@@H]1C(=O)N2[C@@H](CC[C@@H]1CCO)CC[C@H]2C(=O)NC(c1ccccc1)c1ccccc1`, the pIC50 with MDA-MB-231 was 5.74; with PC-3, under 4.00; in the series with HL-60, under 4.00.

As to `CC[C@H](NC)C(=O)N[C@@H]1C(=O)N2[C@@H](CC[C@@H]1CCO)CC[C@H]2C(=O)NC(c1ccccc1)c1ccccc1`, the values for the pIC50 with MDA-MB-231, in the series with PC-3 and with HL-60 were 6.76, under 4.00 and 4.13, respectively.

Regarding `CC[C@H](N)C(=O)N[C@@H]1C(=O)N2[C@@H](CC[C@@H]1CN)CC[C@H]2C(=O)NC(c1ccccc1)c1ccccc1`, the pIC50 in the series on MDA-MB-231 is 5.22; with PC-3, under 4.00; in the series on HL-60 it was 4.16. The Stability in series [1] came out at 93%.

Take `CCNC[C@H]1CC[C@H]2CC[C@@H](C(=O)NC(c3ccccc3)c3ccccc3)N2C(=O)[C@H]1NC(=O)[C@@H](N)CC`: the pIC50 in the series on MDA-MB-231 was 6.54; in the series on PC-3, under 4.00; in the series on HL-60, 4.08. In addition, the Stability in series [1] came to 81%.

For the compound `CCNCC[C@H]1CC[C@H]2CC[C@@H](C(=O)NC(c3ccccc3)c3ccccc3)N2C(=O)[C@H]1NC(=O)[C@@H](N)CC`, the pIC50 in the series with MDA-MB-231 was 5.10; in the series with PC-3 it was under 4.00; in the series on HL-60, 4.20.

Turning to `CC[C@H](N)C(=O)N[C@@H]1C(=O)N2[C@@H](CC[C@@H]1CNC(=O)NCc1ccccc1)CC[C@H]2C(=O)NC(c1ccccc1)c1ccccc1`, the pIC50 in the series on MDA-MB-231 is 5.47; in the series on PC-3, under 4.00; in the series with HL-60 it was 4.29. Moreover, the Stability in series [1] came to 73%.

With `CC[C@H](N)C(=O)N[C@@H]1C(=O)N2[C@@H](CC[C@@H]1CNC(=O)c1ccccc1)CC[C@H]2C(=O)NC(c1ccccc1)c1ccccc1`, in series [1], the Stability came to 81%. Also, the results for the pIC50 with PC-3 and with HL-60 were 4.10 and 4.44, respectively.

`CC[C@H](N)C(=O)N[C@@H]1C(=O)N2[C@@H](CC[C@@H]1CNCc1ccccc1)CC[C@H]2C(=O)NC(c1ccccc1)c1ccccc1`: the pIC50 was 7.00 in the series on MDA-MB-231, 4.62 in the series on PC-3 and 4.88 with HL-60.
